Results reported in US10975078B2, “Fused indazole pyridone compounds as antivirals” (priority 2017, dated 2021).
Read-outs that look alike come from different tables or passages of the source.

Tested on: HBsAg secretion, HepG2-Clone42 cells (Tet-inducible HBV-expressing, HBV ayw strain)
Test: HBsAg assay (HBsAg ELISA, secreted HBV sAg from HepG2-Clone42 cells)
Format: cell-based
Procedure: HepG2-Clone42, a Tet-inducible HBV-expressing cell line with a stably integrated 1.3 mer copy of the HBV ayw strain, was generated based on the Tet-inducible HepAD38 cell line with slight modifications. Ladner S K, et al., Antimicrobial Agents and Chemotherapy. 41(8):1715-1720 (1997). HepG2-Clone42 cells were cultured in DMEM/F-12+Glutamax™ (Life Technologies, Carlsbad, Calif., USA), supplemented with 10% fetal bovine serum (Life Technologies), G-418 (Corning, Manassas, Va., USA) at a final concentration of 0.5 mg/mL, and 5 μg/mL Doxycycline (Sigma, St. Louis, Mo., USA) and maintained in 5% CO2 at 37° C.
HepG2-Clone42 cells were seeded into black clear-bottom 96-well plates at a concentration of 6.0×10^4 cells/well. 24 hours post-seeding, the cells were treated with 200 μl/well of media containing five-fold serial dilutions of compounds in DMSO. DMSO alone was used as the no drug control. The final DMSO concentration in all wells was 0.5%.
The HBsAg ELISA kit (Alpha Diagnostic International, San Antonio, Tex., USE, Catalog #4110) was used to determine the level (semi-quantitative) of secreted HBV sAg. The HBSAg ELISA assay was performed following the manufacturer's protocol as described.
Step 1. Pipet 100 μL each of compound or DMSO treated samples into HBsAg ELISA plates. Seal plates and incubate at room temp for 60 minutes.
Step 2. Aspirate samples and wash three times with Wash Buffer. Dispense 100 μL of antibody-HRP conjugate to each well. Incubate at room temp for 30 minutes.
Step 3. Aspirate samples and wash three times with Wash Buffer. Add 100 μL of TMB Substrate to all wells and incubate 15 minutes at room temp.
Step 4. Dispense 100 μL of Stop Solution to each well. Measure absorbance of ELISA plate at 450 nm.
Dose-response curves were generated and the EC50 value was defined as the compound concentration at which HBsAg secretion was reduced 50% compared to the DMSO control.
EC50 values were determined as follows:
Determine the percent of HBsAg secretion inhibition. Calculate the percent inhibition on of HBsAg secretion inhibition using the following equation: […]
where XC is the absorbance signal from compound-treated well; MB is average absorbance signal (background signal) for column 12 (no cells+HBsAg ELISA sample buffer) and MD is average absorbance signal from DMSO-treated wells. Then calculate EC50 values by non-linear regression using a four parameter curve logistic equation.
The curve fit model employed is XLFit Dose Response One Site Model 204: y=(A+((B−A)/(1+(10^((C−x)*D))))) where A is the minimum y value, B is the maximum y value, C is the log EC50 value, and D is the slope factor. In the following table+≥100 nM; 100 nM>++≥1 nM; 1 nM>+++

[1] = read-out: HBsAg, EC50 = concentration at which HBsAg secretion was reduced 50% compared to DMSO control
[2] = Hepatitis B virus, read-out: HBsAg (nM), EC50 = concentration at which HBsAg secretion was reduced 50% compared to DMSO control

Structure (SMILES) | EC50 [1] [nM] | EC50 [2] [nM]
COCCOc1cccc2c3n(nc12)CC(C(C)(C)C)n1cc(C(=O)O)c(=O)cc1-3 (single isomer, unassigned) [Example 2.2-I, 6-(tert-butyl)-10-(2-methoxyethoxy)-2-oxo-6,7-dihydro-2H-pyrido[2′,1′:3,4]pyrazino[1,2-b]indazole-3-carboxylic Acid] | > 100 | –
CCCOc1cccc2c3n(nc12)CC(C(C)(C)C)n1cc(C(=O)O)c(=O)cc1-3 (racemic) [Example 2.11, 6-(tert-butyl)-2-oxo-10-propoxy-6,7-dihydro-2H-pyrido[2′,1′:3,4]pyrazino[1,2-b]indazole-3-carboxylic Acid] | – | < 1
COc1ccc2nn3c(c2c1)-c1cc(=O)c(C(=O)O)cn1C(C(C)(C)C)C3 (single isomer, unassigned) [Example 1.3-II, 6-(tert-butyl)-12-methoxy-2-oxo-6,7-dihydro-2H-pyrido[2′,1′:3,4]pyrazino[1,2-b]indazole-3-carboxylic acid] | – | 1 to 100
COCCCOc1cccc2c3n(nc12)C[C@@H](C(C)(C)C)n1cc(C(=O)O)c(=O)cc1-3 [Example 9.1, (R)-6-(tert-butyl)-10-(3-methoxypropoxy)-2-oxo-6,7-dihydro-2H-pyrido[2′,1′:3,4]pyrazino[1,2-b]indazole-3-carboxylic Acid] | – | < 1
COCCOCCOc1cccc2c3n(nc12)CC(C(C)(C)C)n1cc(C(=O)O)c(=O)cc1-3 (racemic) [Example 2.12, 6-(tert-butyl)-10-(2-(2-methoxyethoxy)ethoxy)-2-oxo-6,7-dihydro-2H-pyrido[2′,1′:3,4]pyrazino[1,2-b]indazole-3-carboxylic Acid] | – | 1 to 100
CC(C)(C)C1Cn2nc3c(OC4CCNCC4)cccc3c2-c2cc(=O)c(C(=O)O)cn21 (racemic) [Example 2.27, 6-(tert-butyl)-2-oxo-10-(piperidin-4-yloxy)-6,7-dihydro-2H-pyrido[2′,1′:3,4]pyrazino[1,2-b]indazole-3-carboxylic Acid] | – | > 100
CC(C)(C)C1Cn2nc3c(OCCOCC(F)(F)F)cccc3c2-c2cc(=O)c(C(=O)O)cn21 (centres unmarked) [Example 2.3, 6-(tert-butyl)-2-oxo-10-(2-(2,2,2-trifluoroethoxy)ethoxy)-6,7-dihydro-2H-pyrido[2′,1′:3,4]pyrazino[1,2-b]indazole-3-carboxylic Acid] | – | < 1
CC1(COc2cccc3c4n(nc23)CC(C(C)(C)C)n2cc(C(=O)O)c(=O)cc2-4)COC1 (racemic) [Example 2.45, 6-(tert-butyl)-10-((3-methyloxetan-3-yl)methoxy)-2-oxo-6,7-dihydro-2H-pyrido[2′,1′:3,4]pyrazino[1,2-b]indazole-3-carboxylic Acid] | – | 1 to 100
COCCCOc1cccc2c3n(nc12)C1CCC(C)(C)C1n1cc(C(=O)O)c(=O)cc1-3 (single isomer, unassigned) [Example 6.1-II, 12-(3-methoxypropoxy)-3,3-dimethyl-7-oxo-2,3,3a,14a-tetrahydro-1H,7H-cyclopenta[5,6]pyrido[2′,1′:3,4]pyrazino[1,2-b]indazole-6-carboxylic Acid] | < 1 | –
COc1ccc2c3n(nc2c1)CC(C(C)(C)C)n1cc(C(=O)O)c(=O)cc1-3 (single isomer, unassigned) [Example 1.2-I, 6-(tert-butyl)-11-methoxy-2-oxo-6,7-dihydro-2H-pyrido[2′,1′:3,4]pyrazino[1,2-b]indazole-3-carboxylic acid] | – | 1 to 100
CC(C)(C)C1Cn2nc3c(OCC4CCOCC4)cccc3c2-c2cc(=O)c(C(=O)O)cn21 (racemic) [Example 2.44, 6-(tert-butyl)-2-oxo-10-((tetrahydro-2H-pyran-4-yl)methoxy)-6,7-dihydro-2H-pyrido[2′,1′:3,4]pyrazino[1,2-b]indazole-3-carboxylic Acid] | – | 1 to 100
COc1cccc2c3n(nc12)C1CCC(C)(C)C1n1cc(C(=O)O)c(=O)cc1-3 (single isomer, unassigned) [Example 5.1-I, 12-methoxy-3,3-dimethyl-7-oxo-2,3,3a,14a-tetrahydro-1H,7H-cyclopenta[5,6]pyrido[2′,1′:3,4]pyrazino[1,2-b]indazole-6-carboxylic Acid] | < 1 | –
COCC1(COc2cccc3c4n(nc23)CC(C(C)(C)C)n2cc(C(=O)O)c(=O)cc2-4)CCC1 (centres unmarked) [Example 2.4, 6-(tert-butyl)-10-((1-(methoxymethyl)cyclobutyl)methoxy)-2-oxo-6,7-dihydro-2H-pyrido[2′,1′:3,4]pyrazino[1,2-b]indazole-3-carboxylic Acid] | – | > 100
CC(C)(C)C1Cn2nc3c(OC4CCOC4)cccc3c2-c2cc(=O)c(C(=O)O)cn21 (racemic) [Example 2.37, 6-(tert-butyl)-2-oxo-10-((tetrahydrofuran-3-yl)oxy)-6,7-dihydro-2H-pyrido[2′,1′:3,4]pyrazino[1,2-b]indazole-3-carboxylic Acid] | – | 1 to 100
CC(C)(C)C1Cn2nc3c(OCCCS(C)(=O)=O)cccc3c2-c2cc(=O)c(C(=O)O)cn21 (racemic) [Example 2.30, 6-(tert-butyl)-10-(3-(methylsulfonyl)propoxy)-2-oxo-6,7-dihydro-2H-pyrido[2′,1′:3,4]pyrazino[1,2-b]indazole-3-carboxylic Acid] | – | 1 to 100
CC(C)(C)C1Cn2nc3ccccc3c2-c2cc(=O)c(C(=O)O)cn21 (single isomer, unassigned) [Example 1.5-I, 6-(tert-butyl)-2-oxo-6,7-dihydro-2H-pyrido[2′,1′:3,4]pyrazino[1,2-b]indazole-3-carboxylic acid] | 1 to 100 | –
COc1cccc2c3n(nc12)CC(C(C)(C)CO)n1cc(C(=O)O)c(=O)cc1-3 (single isomer, unassigned) [Example 3.1-II, 6-(1-hydroxy-2-methylpropan-2-yl)-10-methoxy-2-oxo-6,7-dihydro-2H-pyrido[2′,1′:3,4]pyrazino[1,2-b]indazole-3-carboxylic Acid] | 1 to 100 | –
CCC(C)Oc1cccc2c3n(nc12)CC(C(C)(C)C)n1cc(C(=O)O)c(=O)cc1-3 (racemic) [Example 2.7, 10-(sec-butoxy)-6-(tert-butyl)-2-oxo-6,7-dihydro-2H-pyrido[2′,1′:3,4]pyrazino[1,2-b]indazole-3-carboxylic acid] | – | < 1
CC1(C)CCC2C1n1cc(C(=O)O)c(=O)cc1-c1c3cccc(F)c3nn12 (single isomer, unassigned) [Example 5.2-I, 12-fluoro-3,3-dimethyl-7-oxo-2,3,3a,14a-tetrahydro-1H,7H-cyclopenta[5,6]pyrido[2′,1′:3,4]pyrazino[1,2-b]indazole-6-carboxylic Acid] | 1 to 100 | –
CC(C)(C)C1Cn2nc3c(OCCN4CCCC4=O)cccc3c2-c2cc(=O)c(C(=O)O)cn21 (racemic) [Example 2.20, 6-(tert-butyl)-2-oxo-10-(2-(2-oxopyrrolidin-1-yl)ethoxy)-6,7-dihydro-2H-pyrido[2′,1′:3,4]pyrazino[1,2-b]indazole-3-carboxylic Acid] | – | 1 to 100
COCC(C)(C)C1Cn2nc3c(OC)cccc3c2-c2cc(=O)c(C(=O)O)cn21 (single isomer, unassigned) [Example 4.1-II, 10-methoxy-6-(1-methoxy-2-methylpropan-2-yl)-2-oxo-6,7-dihydro-2H-pyrido[2′,1′:3,4]pyrazino[1,2-b]indazole-3-carboxylic Acid] | > 100 | –
COCCCOc1cccc2c3n(nc12)CC(C(C)(C)C)n1cc(C(=O)O)c(=O)cc1-3 (racemic) [Example 2.31, 6-(tert-butyl)-10-(3-methoxypropoxy)-2-oxo-6,7-dihydro-2H-pyrido[2′,1′:3,4]pyrazino[1,2-b]indazole-3-carboxylic Acid] | – | < 1
CC1(C)CCC2C1n1cc(C(=O)O)c(=O)cc1-c1c3cccc(F)c3nn12 (single isomer, unassigned) [Example 5.2-II, 12-fluoro-3,3-dimethyl-7-oxo-2,3,3a,14a-tetrahydro-1H,7H-cyclopenta[5,6]pyrido[2′,1′:3,4]pyrazino[1,2-b]indazole-6-carboxylic Acid] | > 100 | –
